According to PMC7116141 (Journal of the American Chemical Society, 2006):

Biological target: T1, human OGA (hOGA, O-GlcNAcase) (Homo sapiens, UniProt O60502)
T1 sequence (O60502 1-916): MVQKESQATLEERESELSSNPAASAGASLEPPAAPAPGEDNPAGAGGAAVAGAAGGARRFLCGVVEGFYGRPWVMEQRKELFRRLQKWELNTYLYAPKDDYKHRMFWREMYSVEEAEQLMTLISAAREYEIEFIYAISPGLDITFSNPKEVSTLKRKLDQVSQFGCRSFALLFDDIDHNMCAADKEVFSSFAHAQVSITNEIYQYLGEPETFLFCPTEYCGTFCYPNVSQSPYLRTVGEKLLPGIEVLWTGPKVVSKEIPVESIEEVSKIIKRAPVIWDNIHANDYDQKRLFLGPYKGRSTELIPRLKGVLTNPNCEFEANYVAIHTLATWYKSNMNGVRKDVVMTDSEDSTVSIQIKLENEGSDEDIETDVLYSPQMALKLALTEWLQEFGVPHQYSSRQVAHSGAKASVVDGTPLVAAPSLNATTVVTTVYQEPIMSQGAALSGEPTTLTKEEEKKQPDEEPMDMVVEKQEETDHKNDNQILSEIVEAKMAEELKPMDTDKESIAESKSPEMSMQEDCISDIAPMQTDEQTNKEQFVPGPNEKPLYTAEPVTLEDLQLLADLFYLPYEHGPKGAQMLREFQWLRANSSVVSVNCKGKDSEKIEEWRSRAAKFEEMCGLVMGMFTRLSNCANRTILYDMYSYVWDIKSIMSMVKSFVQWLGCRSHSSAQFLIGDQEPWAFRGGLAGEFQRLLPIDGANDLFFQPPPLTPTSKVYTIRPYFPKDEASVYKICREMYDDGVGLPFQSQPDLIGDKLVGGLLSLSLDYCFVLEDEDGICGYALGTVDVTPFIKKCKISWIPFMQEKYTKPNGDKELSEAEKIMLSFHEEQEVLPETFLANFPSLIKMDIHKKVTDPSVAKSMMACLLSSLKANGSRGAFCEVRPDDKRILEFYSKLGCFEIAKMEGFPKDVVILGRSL
Experiment: anti-O-GlcNAc immunoblot of treated HEK […] cells
Format: cell-based

CC(C)C(=O)N[C@H]1c2nc(CCc3ccccc3)cn2[C@H](CO)[C@@H](O)[C@@H]1O [compound 1, GlcNAcstatin]
anti-O-GlcNAc immunoblot of treated HEK 293 cells (qualitative): is active against human OGA (hOGA) in human cell lines
